# According to US20100056524A1, “Compound” (priority 2008, published 2010):
# Where a name gives a salt, the structure may show the parent alone.
# Biological target: T1, TBK1 (Homo sapiens, UniProt Q9UHD2)
# T1 construct: All protein kinases were of human origin and encoded full length proteins, unless indicated otherwise; His6; made in house; host or cells: insect Sf21 cells
# T1 sequence (Q9UHD2 1-729): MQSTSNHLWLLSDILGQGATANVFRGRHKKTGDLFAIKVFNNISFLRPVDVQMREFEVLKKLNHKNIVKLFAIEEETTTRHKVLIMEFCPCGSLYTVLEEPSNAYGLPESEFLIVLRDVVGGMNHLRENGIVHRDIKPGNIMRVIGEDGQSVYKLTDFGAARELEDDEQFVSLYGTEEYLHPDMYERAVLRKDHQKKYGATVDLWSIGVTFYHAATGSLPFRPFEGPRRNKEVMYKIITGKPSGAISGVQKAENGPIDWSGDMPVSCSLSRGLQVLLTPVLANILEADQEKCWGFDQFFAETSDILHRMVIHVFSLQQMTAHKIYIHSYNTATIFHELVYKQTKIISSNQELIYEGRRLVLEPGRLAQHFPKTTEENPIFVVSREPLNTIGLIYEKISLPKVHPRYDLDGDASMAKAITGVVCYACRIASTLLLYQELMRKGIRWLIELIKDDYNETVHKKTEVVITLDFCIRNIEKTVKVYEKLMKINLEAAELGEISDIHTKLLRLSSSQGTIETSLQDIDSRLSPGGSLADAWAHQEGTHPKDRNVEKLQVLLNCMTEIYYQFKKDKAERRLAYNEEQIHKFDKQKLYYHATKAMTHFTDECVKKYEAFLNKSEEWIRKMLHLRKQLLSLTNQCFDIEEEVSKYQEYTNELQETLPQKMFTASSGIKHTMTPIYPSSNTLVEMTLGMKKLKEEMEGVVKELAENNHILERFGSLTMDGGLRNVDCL
# Assay: TBK1 protein kinase assay ([γ-33P]ATP, P81 filterplates)
# Type: biochemical
# Conditions: 50 μM ATP; read-out: Potency (TBK1 IC50 potency score)
# Summary of the method: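 Human TBK1 assayed for 30 min with peptide substrate (300 μM), 50 μM [γ-33P]ATP and 10 mM magnesium acetate in 50 mM Tris/HCl pH 7.5, 0.1 mM EGTA, 0.1% 2-mercaptoethanol. Stopped with orthophosphoric acid and counted on P81 filters. IC50 from 10 compound concentrations.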
row,IC50,SMILES
1,1000 to 10000 nM,"O=C(NCCCNc1nc(Nc2ccc3[nH]c(C(F)(F)F)nc3c2)ncc1C1CC1)c1cccs1 [Example 62, Thiophene-2-carboxylic acid {3-[5-cyclopropyl-2-(2-trifluoromethyl-1H-benzimidazol-5-ylamino)-pyrimidin-4-ylamino]-propyl}-amide]"
2,100 to 1000 nM,"O=C(NCCCNc1nc(Nc2ccncc2)ncc1C1CC1)c1cccs1 [Example 63, Thiophene-2-carboxylic acid {3-[5-cyclopropyl-2-(pyridin-4-ylamino)-pyrimidin-4-ylamino]-propyl}-amide]"
3,< 100 nM,"O=C(NCCCNc1nc(Nc2cncc(F)c2)ncc1C1CC1)C1CCC1 [Example 64, Cyclobutanecarboxylic acid {3-[5-cyclopropyl-2-(5-fluoro-pyridin-3-ylamino)-pyrimidin-4-ylamino]-propyl}-amide]"
4,< 100 nM,"O=C(NCCCNc1nc(Nc2cccnc2)ncc1C1CC1)C1CCC1 [Example 65, Cyclobutanecarboxylic acid {3-[5-cyclopropyl-2-(pyridin-3-ylamino)-pyrimidin-4-ylamino]-propyl}-amide]"
5,< 100 nM,"O=C(NCCCNc1nc(Nc2cccnc2)ncc1C1CC1)C1CCCC1 [Example 66, Cyclopentanecarboxylic acid {3-[5-cyclopropyl-2-(pyridin-3-ylamino)-pyrimidin-4-ylamino]-propyl}-amide]"
6,< 100 nM,"CC(=O)Nc1cccc(Nc2ncc(C3CC3)c(NCCCNC(=O)C3CCCC3)n2)c1 [Example 67, Cyclopentanecarboxylic acid {3-[2-(3-acetylamino-phenylamino)-5-cyclopropyl-pyrimidin-4-ylamino]-propyl}-amide]"
7,< 100 nM,"CC(=O)Nc1cccc(Nc2ncc(C3CC3)c(NCCCNC(=O)C3CCC3)n2)c1 [Example 68, Cyclobutanecarboxylic acid {3-[2-(3-acetylamino-phenylamino)-5-cyclopropyl-pyrimidin-4-ylamino]-propyl}-amide]"
8,< 100 nM,"Nc1cccc(Nc2ncc(C3CC3)c(NCCCNC(=O)c3cccs3)n2)c1 [Example 69, Thiophene-2-carboxylic acid {3-[2-(3-amino-phenylamino)-5-cyclopropyl-pyrimidin-4-ylamino]-propyl}-amide]"
9,< 100 nM,"O=C(NCCCNc1nc(Nc2cccc(CO)c2)ncc1C1CC1)C1CCC1 [Example 70, Cyclobutanecarboxylic acid {3-[5-cyclopropyl-2-(3-hydroxymethyl-phenylamino)-pyrimidin-4-ylamino]-propyl}-amide. xHCl salt]"
10,< 100 nM,"O=C(O)c1cccc(Nc2ncc(C3CC3)c(NCCCNC(=O)C3CCC3)n2)c1 [Example 71, 3-{4-[3-(Cyclobutanecarbonyl-amino)-propylamino]-5-cyclopropyl-pyrimidin-2-ylamino}-benzoic acid hydrochloride salt]"
11,< 100 nM,"O=C(NCCCNc1nc(Nc2cc(F)cc(F)c2)ncc1C1CC1)C1CCC1 [Example 72, Cyclobutanecarboxylic acid {3-[5-cyclopropyl-2-(3,5-difluoro-phenylamino)-pyrimidin-4-ylamino]-propyl}-amide. Hydrochloride salt]"
12,< 100 nM,"COCCNC(=O)c1cccc(Nc2ncc(C3CC3)c(NCCCNC(=O)C3CCC3)n2)c1 [Example 73, 3-{4-[3-(Cyclobutanecarbonyl-amino)-propylamino]-5-cyclopropyl-pyrimidin-2-ylamino}-N-(2-methoxy-ethyl)-benzamide]"
13,< 100 nM,"O=C(NCCc1c[nH]cn1)c1cccc(Nc2ncc(C3CC3)c(NCCCNC(=O)C3CCC3)n2)c1 [Example 74, 3-{4-[3-(Cyclobutanecarbonyl-amino)-propylamino]-5-cyclopropyl-pyrimidin-2-ylamino}-N-[2-(1H-imidazol-4-yl)-ethyl]-benzamide]"
14,< 100 nM,"O=C(NCCCNc1nc(Nc2cccc(C(=O)N3CCOCC3)c2)ncc1C1CC1)C1CCC1 [Example 75, Cyclobutanecarboxylic acid (3-{5-cyclopropyl-2-[3-(morpholine-4-carbonyl)-phenylamino]-pyrimidin-4-ylamino}-propyl)-amide]"
15,< 100 nM,"CN(C)CCN(C)C(=O)c1cccc(Nc2ncc(C3CC3)c(NCCCNC(=O)C3CCC3)n2)c1 [Example 76, 3-{4-[3-(Cyclobutanecarbonyl-amino)-propylamino]-5-cyclopropyl-pyrimidin-2-ylamino}-N-(2-dimethylamino-ethyl)-N-methyl-benzamide]"
16,< 100 nM,"CN1CCN(C(=O)c2cccc(Nc3ncc(C4CC4)c(NCCCNC(=O)C4CCC4)n3)c2)CC1 [Example 77, Cyclobutanecarboxylic acid (3-{5-cyclopropyl-2-[3-(4-methyl-piperazine-1-carbonyl)-phenylamino]-pyrimidin-4-ylamino}-propyl)-amide]"
17,< 100 nM,"CN1CCC(CNC(=O)c2cccc(Nc3ncc(C4CC4)c(NCCCNC(=O)C4CCC4)n3)c2)CC1 [Example 78, 3-{4-[3-(Cyclobutanecarbonyl-amino)-propylamino]-5-cyclopropyl-pyrimidin-2-ylamino}-N-(1-methyl-piperidin-4-ylmethyl)-benzamide]"
18,< 100 nM,"CN(C)CCCN(C)C(=O)c1cccc(Nc2ncc(C3CC3)c(NCCCNC(=O)C3CCC3)n2)c1 [Example 79, 3-{4-[3-(Cyclobutanecarbonyl-amino)-propylamino]-5-cyclopropyl-pyrimidin-2-ylamino}-N-(3-dimethylamino-propyl)-N-methyl-benzamide]"
19,< 100 nM,"CN(CCN1CCOCC1)C(=O)c1cccc(Nc2ncc(C3CC3)c(NCCCNC(=O)C3CCC3)n2)c1 [Example 80, 3-{4-[3-(Cyclobutanecarbonyl-amino)-propylamino]-5-cyclopropyl-pyrimidin-2-ylamino}-N-methyl-N-(2-morpholin-4-yl-ethyl)-benzamide]"
20,< 100 nM,"CN(C)C1CCN(C(=O)c2cccc(Nc3ncc(C4CC4)c(NCCCNC(=O)C4CCC4)n3)c2)CC1 [Example 81, Cyclobutanecarboxylic acid (3-{5-cyclopropyl-2-[3-(4-dimethylamino-piperidine-1-carbonyl)-phenylamino]-pyrimidin-4-ylamino}-propyl)-amide]"
21,100 to 1000 nM,"CN1CCC(NC(=O)c2cccc(Nc3ncc(C4CC4)c(NCCCNC(=O)C4CCC4)n3)c2)CC1 [Example 82, 3-{4-[3-(Cyclobutanecarbonyl-amino)-propylamino]-5-cyclopropyl-pyrimidin-2-ylamino}-N-(1-methyl-piperidin-4-yl)-benzamide]"
22,< 100 nM,"O=C(NCCCNc1nc(Nc2cccc(Cn3cncn3)c2)ncc1C1CC1)C1CCC1 [Example 83, Cyclobutanecarboxylic acid {3-[5-cyclopropyl-2-(3-1,2,4-triazol-1-ylmethyl-phenylamino)-pyrimidin-4-ylamino]-propyl}-amide]"
23,< 100 nM,"Cn1ccc(-c2cccc(Nc3ncc(C4CC4)c(NCCCNC(=O)C4CCC4)n3)c2)n1 [Example 84, Cyclobutanecarboxylic acid (3-{5-cyclopropyl-2-[3-(1-methyl-1H-pyrazol-3-yl)-phenylamino]-pyrimidin-4-ylamino}-propyl)-amide]"
24,< 100 nM,"O=C(NCCCNc1nc(Nc2ccc(F)c(F)c2)ncc1C1CC1)C1CCC1 [Example 85, Cyclobutanecarboxylic acid {3-[5-cyclopropyl-2-(3,4-difluoro-phenylamino)-pyrimidin-4-ylamino]-propyl}-amide]"
25,< 100 nM,"O=C(NCCCNc1nc(Nc2cccc(-n3cncn3)c2)ncc1C1CC1)C1CCC1 [Example 86, Cyclobutanecarboxylic acid (3-{5-cyclopropyl-2-[3-(2H-1,2,4-triazol-1-yl)-phenylamino]-pyrimidin-4-ylamino}-propyl)-amide]"
26,< 100 nM,"O=C(NCCCNc1nc(Nc2cccc(-c3cnco3)c2)ncc1C1CC1)C1CCC1 [Example 87, Cyclobutanecarboxylic acid {3-[5-cyclopropyl-2-(3-oxazol-5-yl-phenylamino)-pyrimidin-4-ylamino]-propyl}-amide]"
27,< 100 nM,"O=C1NCc2ccc(Nc3ncc(C4CC4)c(NCCCNC(=O)C4CCC4)n3)cc21 [Example 88, Cyclobutanecarboxylic acid {3-[5-cyclopropyl-2-(3-oxo-2,3-dihydro-1H-isoindol-5-ylamino)-pyrimidin-4-ylamino]-propyl}-amide hydrochloride salt]"
28,< 100 nM,"O=C(NCc1ncc[nH]1)c1cccc(Nc2ncc(C3CC3)c(NCCCNC(=O)C3CCC3)n2)c1 [Example 89, 3-{4-[3-(Cyclobutanecarbonyl-amino)-propylamino]-5-cyclopropyl-pyrimidin-2-ylamino}-N-(1H-imidazol-2-ylmethyl)-benzamide. Hydrochloride salt]"
